According to patent US20110281896A1, “OPTICALLY PURE QUINAZOLINE COMPOUNDS” (Jiangsu Hansoh Pharmaceutical Co. Ltd, priority 2009, published 2011):

Tests used:
A431 = assay: Antitumor activity in vitro, SRB cell proliferation inhibition; assay type: cell-based; details: Homo sapiens, A-431, A431 cells, 72 h incubation, Logit method
Protocol: (§1) Evaluation of Antitumor Activity In Vitro
(§2) Cell Strains: A431; MCF-7
(§3) Experiment Design: Cells were incubated with different concentrations of compounds for 72 hours. The inhibition of cell proliferation by the compounds was evaluated by SRB, followed by calculation of the inhibition rate. Then, value of IC50 was calculated by using-Logit method base on the inhibition rate and used to compare in vitro antitumor activity of the compounds.
(§4) Method for Calculating the Inhibition Rate: Inhibition rate (%)=(OD value of control group−OD value of drug group)/OD value of control group×100%

MCF-7 = assay: as above; assay type: cell-based; details: Homo sapiens, MCF7, MCF-7 cells, 72 h incubation, Logit method
Protocol: as §1, §2, §3, §4

[1] = system: human lung cancer Calu-3 xenografts; assay: Effect on xenografts in nude mice with lung cancer Calu-3; assay type: in vivo, BALB/cA-nude mice; details: PO QD × 17; for Initial Tumor Volume (mm^3) D0: D0 = time of first administration (baseline); for Initial Tumor Volume (mm^3) D0 / Final Tumor Inhibition Rate (%) D16 / % T/C D16 / Relative Tumor Volume D16 / Final Tumor Volume (mm^3) D16 / The Recession/Group: 146.5-146.7 mg/kg; for Initial Tumor Volume (mm^3) D0 / Relative Tumor Volume D16 / Final Tumor Volume (mm^3) D16: mean; for % T/C D16: C = mean tumor volume of drug, control group; for Final Tumor Volume (mm^3) D16: D16 = 17th day after administration; for The Recession/Group: number of mice per group of 6; for inhibition of growth of human lung cancer Calu-3 (in words): xenografts in nude mice
Protocol: Effect of compound 97(±), compound 97, compound 110 and Lapatinib (positive control) on xenografts in nude mice with lung cancer Calu-3 Remark: “±” means the compound is racemic.
The purpose of the experiment is to evaluate and compare the effect of compound 97(±), compound 97, compound 110, Lapatinib on xenografts in nude mice with lung cancer Calu-3.
BALB/cA-nude mice, 6-7 weeks, ♀, purchased from ShangHai Slac laboratory animal Co., Ltd.
Calu-3 cells were injected subcutaneously into nude mice. Animals were divided into groups (d0) randomly after tumors have grown to 150-300 mm^3. Dosage and dosage regimen design can be seen in table 1. Tumors volume was measured 2-3 times per week. Mice were weighed and data were recorded. Calculation formula for tumor volume (V) is as below:
V=½×a×b^2, wherein, a and b represent length and width respectively.

Row | IC50 (A431) | IC50 (MCF-7) | SMILES | Initial Tumor Volume (mm^3) D0 [1] | Final Tumor Inhibition Rate (%) D16 [1] | % T/C D16 [1] | Relative Tumor Volume D16 [1] | Final Tumor Volume (mm^3) D16 [1] | The Recession/Group [1] | inhibition of growth of human lung cancer Calu-3 (in words) [1]
1 | 0.643 µM | 8.47 µM | CS(=O)(=O)CCNCc1ccc(-c2ccc3ncnc(Nc4ccc(OCc5cccc(F)c5)c(Cl)c4)c3c2)o1 [Lapatinib, reference compound] | 262.3 mm^3 | 42% | 58% | 2.0 | 526.5 mm^3 | 0 | inhibited the growth of human lung cancer Calu-3 significantly
2 | 0.734 µM | 6.67 µM | CN(C)[C@H](CS(C)(=O)=O)c1ccc(-c2ccc3ncnc(Nc4ccc(OCc5cccc(F)c5)c(Cl)c4)c3c2)o1 [Compound 97, (S)—N-(4-(3-fluorobenzyloxy)-3-chlorophenyl)-6-(5-(1-(N,N-dimethyl-amino)-2-(methylsulfonyl)ethyl)furan-2-yl)quinazolin-4-amine] | 291.2 mm^3 | 44% | 56% | 1.9 | 525.4 mm^3 | 0 | inhibited the growth of human lung cancer Calu-3 significantly
